Experimental data taken from the NIST ThermoML archive (doi:10.1021/je050151n).
“And” between values parts separate entries of the source, which are not always exact repeats. Identical values can stand only once.

Columns and labels:
[1] = 101.33 kPa, Liquid; for mass density: Vibrating tube method; for viscosity: Vibrating wire viscometry
[2] = refractive index (Na D-line) (dimensionless); conditions: 293.15 K; 101.33 kPa; Liquid; Standard Abbe refractometry

CC(C)CCCCCCCOC(=O)c1ccccc1C(=O)OCCCCCCCC(C)C
[1]
Conditions | mass density [kg/m3] | viscosity
283.16 K | 973.52 | 267.36 mPa·s
288.26 K | 969.85 | 176.04 mPa·s
293.21 K | 966.38 | 123.07 mPa·s and 122.75 mPa·s
298.24 K | 962.82 | 87.8 mPa·s
303.21 K | 959.3 | 64.84 mPa·s
308.2 K | 955.78 | 48.73 mPa·s
313.21 K | 952.22 | 37.57 mPa·s

Conditions | refractive index
[2] | 1.4845
